Laboratory results: PubChem BioAssay (NCI)
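Values below derive from 48-hour exposures of cells grown in 96-well plates, with endpoints linearly interpolated between the two concentrations bracketing the appropriate inhibition level. GI50 = concentration required for 50% inhibition of growth. TGI: total growth inhibition.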

Assays:
Assay in all cases: NCI tumour cell line growth inhibition, 48 h
COLO 205 colon = test system: COLO 205 colon
HL-60(TB) leukemia = test system: HL-60(TB) leukemia
SF-539 CNS = test system: SF-539 CNS
OVCAR-5 ovarian = test system: OVCAR-5 ovarian
HCT-116 colon = test system: HCT-116 colon
U251 CNS = test system: U251 CNS
SK-MEL-28 melanoma = test system: SK-MEL-28 melanoma
BT-549 breast = test system: BT-549 breast
HOP-92 NSCLC = test system: HOP-92 NSCLC
SR leukemia = test system: SR leukemia

Row | Structure (SMILES) | TGI (COLO 205 colon) | TGI (HL-60(TB) leukemia) | TGI (SF-539 CNS) | TGI (OVCAR-5 ovarian) | TGI (HCT-116 colon) | TGI (U251 CNS) | TGI (SK-MEL-28 melanoma) | TGI (BT-549 breast) | TGI (HOP-92 NSCLC) | TGI (SR leukemia) | GI50 (COLO 205 colon) | GI50 (HL-60(TB) leukemia) | GI50 (SF-539 CNS) | GI50 (OVCAR-5 ovarian) | GI50 (HCT-116 colon) | GI50 (U251 CNS) | GI50 (SK-MEL-28 melanoma) | GI50 (BT-549 breast) | GI50 (HOP-92 NSCLC) | GI50 (SR leukemia)
1 | COc1cccc(/C=C/c2ccnc3ccccc23)c1OC | > 10 µM | > 10 µM | > 10 µM | > 10 µM | > 10 µM | > 10 µM | > 10 µM | > 10 µM | > 10 µM |  |  |  |  |  |  |  |  |  |  | 
2 | CCN(CC)c1ccc(C2NC(=O)c3ccccc3N2)cc1 (stereo not drawn) | 4.51 µM |  | 8.68 µM | > 100 µM | > 100 µM | > 100 µM | > 100 µM | > 100 µM | 66.5 µM | > 100 µM |  |  |  |  |  |  |  |  |  | 
3 | N#C/C(=C\c1cc(O)ccc1O)C(N)=O | > 100 µM | 34.6 µM | > 100 µM | > 100 µM | > 100 µM | > 100 µM | > 100 µM |  | > 100 µM |  |  |  |  |  |  |  |  |  |  | 
4 | CCN(CC)c1ccc2nc3c4ccccc4c(=O)cc-3n(-c3ccccc3)c2c1 | 1.59 µM | 0.821 µM | 6.8 µM | > 100 µM | 3.27 µM | 6.61 µM | 7.07 µM | 5.06 µM | 4.78 µM |  | 0.353 µM | 0.273 µM | 2.49 µM | 2.92 µM | 1.35 µM | 1.49 µM | 2.05 µM | 1.95 µM | 1.24 µM | 
5 | COc1cccc2nc3ccccc3nc12 | > 100 µM | > 100 µM | > 100 µM | > 100 µM | > 100 µM | > 100 µM | > 100 µM |  | 78.1 µM | > 100 µM |  |  |  |  |  |  |  |  |  | 
6 | O=C(CO[N+](=O)[O-])OC/C=C/c1ccccc1 | > 100 µM | 60.6 µM | > 100 µM | > 100 µM | > 100 µM | > 100 µM |  |  | > 100 µM | > 100 µM |  |  |  |  |  |  |  |  |  | 
7 | CN(C)C(=O)NC(=S)N(C)C |  | > 100 µM | > 100 µM | > 100 µM | > 100 µM | 14 µM | > 100 µM |  | > 100 µM | > 100 µM |  |  |  |  |  |  |  |  |  | 
8 | CN(NC1OC(CO)C(O)C(O)C1O)c1ccccc1 (stereo not drawn) | > 100 µM | > 100 µM |  | > 100 µM | > 100 µM | > 100 µM | > 100 µM |  | > 100 µM | > 100 µM |  |  |  |  |  |  |  |  |  | 
9 | COc1ccc(-c2ccccc2)c2[nH]c3c(c12)CCNC3=O | > 100 µM | > 100 µM | > 100 µM | > 100 µM | > 100 µM | > 100 µM |  |  | > 100 µM | > 100 µM |  |  |  |  |  |  |  |  |  | 
10 | O=C(N/C(=C\c1ccccc1Cl)c1nc2ccccc2[nH]1)c1ccccc1 | > 100 µM | 71.4 µM | > 100 µM | > 100 µM |  | > 100 µM | > 100 µM |  | 34.1 µM | 79.3 µM |  |  |  |  |  |  |  |  |  | 
11 | c1ccc(-c2n(Cc3ccc4ccccc4c3)cc[n+]2Cc2ccc3ccccc3c2)cc1 |  |  | 2.81 µM | 2.75 µM | 2.14 µM |  | 2.53 µM |  |  | 3.4 µM |  |  | 1.45 µM | 1.36 µM | 0.665 µM |  | 1.14 µM |  |  | 0.972 µM
